Literature values as cited in patent US20040112375A1, “Predicting outcome of hyperbaric oxygen therapy treatment with nitric oxide bioavailability” (priority 2002, published 2004).

| Compound | fall of plasma isoprostane levels (diabetic men, 600 mg twice daily for seven days) [%] | effect on isoprostane levels in biological fluids (in vivo) |
| --- | --- | --- |
| 2-(2,3-dihydro-5-acetoxy-4,6,7-trimethylbenzofuranyl) acetic acid [raxofelast] | 50 |  |
| Cc1c(C)c2c(c(C)c1O)CC[C@@](C)(CCC[C@H](C)CCC[C@H](C)CCCC(C)C)O2 [alpha tocopherol] |  | reduce such isoprostane levels |
